Test results taken from patent publication US20220395472A1 (Dermavant Sciences GmbH, priority 2021, published 2022).

What was measured:
[1] = In vitro studies in human skin microsomes: metabolic turnover; format: in vitro ADME
Text: The reason for the decrease in plasma concentrations over time is unknown. Without wishing to be bound by theory, as the skin heals, there may be less penetration of the drug through the stratum corneum and into the systemic circulation since the barrier is restored.

[2] = system: adults with plaque psoriasis; assay: Long-term extension study (PSOARING 3): Dermatology Life Quality Index (DLQI); format: in vivo, human; parameters: key to DLQI Total Score, Observed, Mean / DLQI Total Score, Observed, Median: DLQI total score 0–30; higher = greater quality-of-life impairment
Text: Subjects completed the DLQI questionnaire. The DLQI is a simple, validated, dermatology specific, 10 question questionnaire to assess the impact of the disease on a subject's quality of life. The DLQI is an important outcome measure in dermatology clinical trials and is the most frequently used instrument in randomized, controlled dermatology trials. The DLQI can be analyzed as a total score (where a higher score indicates greater impairment in quality of life) and can also be scored for the following dimensions: Symptoms and Feelings (Items 1 and 2), Daily Activities (Items 3 and 4), Leisure (Items 5 and 6), Work and School (Item 7), Personal Relationships (Items 8 and 9), and Treatment (Item 10).
The DLQI is a 10 item subject reported outcome, 6 domain measure that assessed the extent to which the skin condition had affected the subject's quality of life over the past week. The total score (0 to 30) is the sum of 10 questions with each ranging from 0 to 3. The DLQI was assessed at 4 week intervals. If one question was left unanswered, this was scored as 0 and the scores were summed and expressed as usual out of a maximum of 30. If ≥2 questions were left unanswered, the total DLQI score was considered missing.
DLQI total score and sub scores on DLQI domains and their changes from baseline as well as percent change from baseline values were summarized descriptively. Additional details of the analysis of the DLQI are provided in the SAP.

[3] = Week 16 OC, Tapinarof (Pivotal)
[4] = Week 40 OC, Tapinarof (Pivotal)

CC(C)c1c(O)cc(/C=C/c2ccccc2)cc1O [Tapinarof, 3,5-Dihydroxy-4-isopropyl-trans-stilbene]
metabolic turnover [1]: no metabolic turnover
DLQI Total Score, Observed, Mean ([2]; Baseline, Overall): 4.3
DLQI Total Score, Observed, Median ([2]; Baseline, Overall): 2.0
DLQI Total Score, Observed, Mean ([2]; Baseline, Tapinarof (Pivotal)): 3.3
DLQI Total Score, Observed, Median ([2]; Baseline, Tapinarof (Pivotal)): 2.0
mean (SD) DLQI total score ([2]; Week 16, OC, Tapinarof (Pivotal) group): 2.0 (3.23)
mean (SD) DLQI total score ([2]; Week 16, OC, Vehicle (Pivotal) group): 3.0 (5.19)
DLQI Total Score, CFBL, Mean ([2]; Week 16 OC, Overall): −1.7
DLQI Total Score, CFBL, Median ([2]; Week 16 OC, Overall): −1.0
DLQI Total Score, Observed, Mean ([2]; Week 16 OC, Overall): 2.3
DLQI Total Score, Observed, Median ([2]; Week 16 OC, Overall): 1.0
DLQI Total Score, Percent CFBL, Mean ([2]; Week 16 OC, Overall): −30.7%
DLQI Total Score, Percent CFBL, Median ([2]; Week 16 OC, Overall): −60.0%
mean (SD) DLQI total score ([2]; Week 16 OC, Overall): 2.3 (4.02)
DLQI Total Score, CFBL, Mean [2, 3]: −1.0
DLQI Total Score, CFBL, Median [2, 3]: 0.0
DLQI Total Score, Observed, Mean [2, 3]: 2.0
DLQI Total Score, Observed, Median [2, 3]: 1.0
DLQI Total Score, Percent CFBL, Mean [2, 3]: −21.3%
DLQI Total Score, Percent CFBL, Median [2, 3]: −50.0%
DLQI Total Score, CFBL, Mean ([2]; Week 16 OC, Vehicle (Pivotal)): −3.1
DLQI Total Score, CFBL, Median ([2]; Week 16 OC, Vehicle (Pivotal)): −3.0
DLQI Total Score, Observed, Mean ([2]; Week 16 OC, Vehicle (Pivotal)): 3.0
DLQI Total Score, Observed, Median ([2]; Week 16 OC, Vehicle (Pivotal)): 1.0
DLQI Total Score, Percent CFBL, Mean ([2]; Week 16 OC, Vehicle (Pivotal)): −45.9%
DLQI Total Score, Percent CFBL, Median ([2]; Week 16 OC, Vehicle (Pivotal)): −73.0%
mean (SD) DLQI total score ([2]; Week 40, OC, Tapinarof (Pivotal) group): 1.6 (2.36)
mean (SD) DLQI total score ([2]; Week 40, OC, Vehicle (Pivotal) group): 2.0 (4.23)
DLQI Total Score, CFBL, Mean ([2]; Week 40 OC, Overall): −2.0
DLQI Total Score, CFBL, Median ([2]; Week 40 OC, Overall): −1.0
DLQI Total Score, Observed, Mean ([2]; Week 40 OC, Overall): 1.7
DLQI Total Score, Observed, Median ([2]; Week 40 OC, Overall): 1.0
DLQI Total Score, Percent CFBL, Mean ([2]; Week 40 OC, Overall): −41.6%
DLQI Total Score, Percent CFBL, Median ([2]; Week 40 OC, Overall): −72.1%
DLQI Total Score, CFBL, Mean [2, 4]: −1.1
DLQI Total Score, CFBL, Median [2, 4]: 0.0
DLQI Total Score, Observed, Mean [2, 4]: 1.6
DLQI Total Score, Observed, Median [2, 4]: 1.0
DLQI Total Score, Percent CFBL, Mean [2, 4]: −25.0%
DLQI Total Score, Percent CFBL, Median [2, 4]: −61.3%
DLQI Total Score, CFBL, Mean ([2]; Week 40 OC, Vehicle (Pivotal)): −3.9
DLQI Total Score, CFBL, Median ([2]; Week 40 OC, Vehicle (Pivotal)): −3.0
DLQI Total Score, Observed, Mean ([2]; Week 40 OC, Vehicle (Pivotal)): 2.0
DLQI Total Score, Observed, Median ([2]; Week 40 OC, Vehicle (Pivotal)): 0.0
DLQI Total Score, Percent CFBL, Mean ([2]; Week 40 OC, Vehicle (Pivotal)): −69.2%
DLQI Total Score, Percent CFBL, Median ([2]; Week 40 OC, Vehicle (Pivotal)): −88.9%
